Values quoted from earlier work, collected in patent publication US20240226372A1, “HYDROPHILIC POLY(THIOKETAL) URETHANE SCAFFOLDS AND METHODS OF USE THEREOF” (Vanderbilt University, priority 2021, published 2024).

Test system: osteoblasts
Parameters: dose or concentration left out as unconfirmed
Conditions: 21 antibiotics

Compound: CN[C@H](CC(C)C)C(=O)N[C@H]1C(=O)N[C@@H](CC(N)=O)C(=O)N[C@H]2C(=O)N[C@H]3C(=O)N[C@H](C(=O)N[C@H](C(=O)O)c4cc(O)cc(O)c4-c4cc3ccc4O)[C@H](O)c3ccc(c(Cl)c3)Oc3cc2cc(c3O[C@@H]2O[C@H](CO)[C@@H](O)[C@H](O)[C@H]2O[C@H]2C[C@](C)(N)[C@H](O)[C@H](C)O2)Oc2ccc(cc2Cl)[C@H]1O [vancomycin]
- effects on osteoblast function: least detrimental effects
